# Measurements published in patent publication US11078198B2 (BRISTOL-MYERS SQUIBB COMPANY, priority 2017, dated 2021).
# Target: T1, human FXR (Homo sapiens, UniProt Q96RI1)
# T1 construct: expressed in transfected cells; host or cells: HEK293 cells stably carrying a 5xGal4-response-element firefly luciferase reporter, transiently transfected with pcDNA3.1-Gal4-FXR
# T1 sequence (Q96RI1 262-486 limits assumed): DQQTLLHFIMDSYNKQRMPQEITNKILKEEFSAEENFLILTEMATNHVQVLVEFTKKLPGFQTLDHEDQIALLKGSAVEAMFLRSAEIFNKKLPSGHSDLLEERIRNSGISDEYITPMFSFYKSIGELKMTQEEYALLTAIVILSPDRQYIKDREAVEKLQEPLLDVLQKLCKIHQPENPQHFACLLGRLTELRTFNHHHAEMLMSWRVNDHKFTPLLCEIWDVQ
# Experiment: transient human FXR/Gal4-luciferase reporter assay
# Assay type: cell-based
# Details: Gal4-hFXR transfected HEK293 reporter cells; relative to 8 μM GW-4064
# Experimental: A Gal4-hFXR fusion construct reporter system was used as the primary assay to characterize compound activity. A construct including 5 copies of the Gal4 promoter response element upstream of a firefly luciferase reporter cDNA was stably expressed in HEK293 cells. This reporter cell line was maintained in Dulbecco's Modified Eagle's medium (DMEM; Gibco) supplemented with 1% penicillin-streptomycin (P/S) solution, 500 μg/mL Zeocin and 10% charcoal/dextran-treated fetal bovine serum (cs-FBS) at 37° C. in a humidified 5% CO2 atmosphere. Another plasmid was constructed in which the human cytomegalovirus promoter in the pcDNA3.1 vector directs the expression of the cDNA encoding a fusion protein comprised of the DNA binding domain from the Gal4 transcription factor fused to the ligand binding domain from human FXR.
# The day prior to transfection, the reporter cells in culture are detached from the plate with trypsin and plated into a T75 flask at a sufficient density to achieve approximately 90% confluence the next morning. The transfection reagents are prepared by separately diluting 25 μg of the pcDNA3.1-Gal4-FXR plasmid into 1.87 mL of Opti-MEM (Thermo-Fisher), and 40 μL of Lipofectamine 2000 (Thermo-Fisher) into 1.87 mL of Opti-MEM, and then adding the diluted DNA solution into the diluted Lipofectamine 2000 solution and incubating at room temperature for 15-20 minutes. The mixture is further diluted with 10 mL of a solution comprised of DMEM, 10% cs-FBS, and 1% P/S immediately prior to transferring to the cells. The maintenance culture media is aspirated from the cells and the final transfection mixture is added before the cells are incubated overnight at 37° C. in a humidified 5% CO2 atmosphere. This protocol can be scaled up, and the transiently transfected cells can be cryopreserved in an assay-ready format.
# For compound testing, 100 nL of the compounds (serial dilutions in DMSO) are dispensed with an Echo acoustic dispenser (Labcyte) into the wells of a Corning/Costar clear bottom 384-well white plate. The transfected cells are harvested, counted, and diluted such that 10-25,000 cells in 25 μL are plated into each well of the 384-well compound assay plate. The compound-treated cells are incubated overnight at 37° C. in a humidified 5% CO2 atmosphere.
row,EC50 [nM],Structure (SMILES)
1,4800,"CC(C)(C)OC(=O)N1CCC2(CC1)COC(c1c(-c3c(Cl)cccc3Cl)noc1C1CC1)O2 (racemic) [(±)-tert-Butyl 2-(5-cyclopropyl-3-(2,6-dichlorophenyl)isoxazol-4-yl)-1,3-dioxa-8-azaspiro[4.5]decane-8-carboxylate]"
2,240,"O=C(O)c1cc(F)c2nc(N3CCC4(C=C(c5c(-c6c(Cl)cccc6Cl)noc5C5CC5)CO4)CC3)sc2c1 [Example 3, 2-(3-(5-Cyclopropyl-3-(2,6-dichlorophenyl)isoxazol-4-yl)-1-oxa-8-azaspiro[4.5]dec-3-en-8-yl)-4-fluorobenzo[d]thiazole-6-carboxylic acid]"
3,712,"O=C(O)c1cccc(N2CCC3(C=C(c4c(-c5c(Cl)cccc5Cl)noc4C4CC4)C3)CC2)n1 [Example 4, 6-(2-(5-Cyclopropyl-3-(2,6-dichlorophenyl)isoxazol-4-yl)-7-azaspiro[3.5]non-1-en-7-yl) picolinic acid]"
4,313,"O=C(O)c1ccc(N2CCC3(C=C(c4c(-c5c(Cl)cccc5Cl)noc4C4CC4)C3)CC2)nn1 [Example 5, 6-(2-(5-Cyclopropyl-3-(2,6-dichlorophenyl)isoxazol-4-yl)-7-azaspiro[3.5]non-1-en-7-yl)pyridazine-3-carboxylic acid]"
5,47,"Cn1cc(C(=O)O)c2cnc(N3CCC4(C=C(c5c(-c6c(Cl)cccc6Cl)noc5C5CC5)C4)CC3)nc21 [Example 6, 2-(2-(5-Cyclopropyl-3-(2,6-dichlorophenyl)isoxazol-4-yl)-7-azaspiro[3.5]non-1-en-7-yl)-7-methyl-7H-pyrrolo[2,3-d]pyrimidine-5-carboxylic acid]"
6,24,"Cn1cc(C(=O)O)c2ccc(N3CCC4(C=C(c5c(-c6c(Cl)cccc6Cl)noc5C5CC5)C4)CC3)nc21 [Example 7, 6-(2-(5-Cyclopropyl-3-(2,6-dichlorophenyl)isoxazol-4-yl)-7-azaspiro[3.5]non-1-en-7-yl)-1-methyl-1H-pyrrolo[2,3-b]pyridine-3-carboxylic acid]"
7,4200,"O=C(O)c1cccc(N2CCC3(C=C(c4c(-c5c(Cl)cccc5Cl)noc4C4CC4)C3)CC2)c1 [Example 9, 3-(2-(5-Cyclopropyl-3-(2,6-dichlorophenyl)isoxazol-4-yl)-7-azaspiro[3.5]non-1-en-7-yl)benzoic acid]"
8,135,"O=C(O)c1ccc(N2CCC3(C=C(c4c(-c5c(Cl)cccc5Cl)noc4C4CC4)C3)CC2)cc1 [Example 10, 4-(2-(5-Cyclopropyl-3-(2,6-dichlorophenyl)isoxazol-4-yl)-7-azaspiro[3.5]non-1-en-7-yl)benzoic acid]"
9,885,"O=C(O)c1ccc(N2CCC3(C=C(c4c(-c5ccccc5Cl)noc4C4CC4)C3)CC2)cc1 [Example 14, 4-(2-(3-(2-Chlorophenyl)-5-cyclopropylisoxazol-4-yl)-7-azaspiro[3.5]non-1-en-7-yl)benzoic acid]"
10,1500,"O=C(O)c1ccc(N2CCC3(C=C(c4c(-c5ccccc5OC(F)(F)F)noc4C4CC4)C3)CC2)nn1 [Example 18, 6-(2-(5-Cyclopropyl-3-(2-(trifluoromethoxy)phenyl)isoxazol-4-yl)-7-azaspiro[3.5]non-1-en-7-yl)pyridazine-3-carboxylic acid]"
11,110,"O=C(O)c1cnc(N2CCC3(C=C(c4c(-c5c(Cl)cccc5Cl)noc4C4CC4)C3)CC2)cn1 [Example 19, 5-(2-(5-Cyclopropyl-3-(2,6-dichlorophenyl)isoxazol-4-yl)-7-azaspiro[3.5]non-1-en-7-yl) pyrazine-2-carboxylic acid]"
12,770,"O=C(O)c1ccc(N2CCC3(C=C(c4c(-c5ccccc5OC(F)(F)F)noc4C4CC4)C3)CC2)nc1 [Example 21, 6-(2-(5-Cyclopropyl-3-(2-(trifluoromethoxy)phenyl)isoxazol-4-yl)-7-azaspiro[3.5]non-1-en-7-yl) nicotinic acid]"
13,1500,"O=C(O)c1ncc(N2CCC3(C=C(c4c(-c5c(Cl)cccc5Cl)noc4C4CC4)C3)CC2)cn1 [Example 22, 5-(2-(5-Cyclopropyl-3-(2,6-dichlorophenyl)isoxazol-4-yl)-7-azaspiro[3.5]non-1-en-7-yl) pyrimidine-2-carboxylic acid]"
14,17,"O=C(O)c1ccc2nc(N3CCC4(C=C(c5c(-c6c(Cl)cccc6Cl)noc5C5CC5)C4)CC3)sc2c1 [Example 24, 2-(2-(5-Cyclopropyl-3-(2,6-dichlorophenyl)isoxazol-4-yl)-7-azaspiro[3.5]non-1-en-7-yl)benzo[d]thiazole-6-carboxylic acid]"
15,1020,"Cn1c(N2CCC3(C=C(c4c(-c5c(Cl)cccc5Cl)noc4C4CC4)C3)CC2)nc2cc(C(=O)O)ccc21 [Example 25, 2-(2-(5-Cyclopropyl-3-(2,6-dichlorophenyl)isoxazol-4-yl)-7-azaspiro[3.5]non-1-en-7-yl)-1-methyl-1H-benzo[d]imidazole-5-carboxylic acid]"
16,157,"O=C(O)c1ccc2oc(N3CCC4(C=C(c5c(-c6c(Cl)cccc6Cl)noc5C5CC5)C4)CC3)nc2c1 [Example 26, 2-(2-(5-Cyclopropyl-3-(2,6-dichlorophenyl)isoxazol-4-yl)-7-azaspiro[3.5]non-1-en-7-yl)benzo[d]oxazole-5-carboxylic acid]"
17,1100,"O=C(O)c1cnc(N2CCC3(C=C(c4c(-c5ccccc5OC(F)(F)F)noc4C4CC4)C3)CC2)c(F)c1 [Example 27, 6-(2-(5-Cyclopropyl-3-(2-(trifluoromethoxy)phenyl)isoxazol-4-yl)-7-azaspiro[3.5]non-1-en-7-yl)-5-fluoronicotinic acid]"
18,453,"O=C(O)c1cnc(N2CCC3(C=C(c4c(-c5c(Cl)cccc5Cl)noc4C4CC4)C3)CC2)c(F)c1 [Example 28, 6-(2-(5-Cyclopropyl-3-(2,6-dichlorophenyl)isoxazol-4-yl)-7-azaspiro[3.5]non-1-en-7-yl)-5-fluoronicotinic acid]"

row,Structure (SMILES),EC50 [nM]
1,"O=C(O)c1cc(F)c2nc(N3[C@@H]4CC[C@H]3CC3(C=C(c5c(-c6c(Cl)cccc6Cl)noc5C5CC5)C3)C4)sc2c1 (mixture of isomers) [Example 11, 2-(3′-(5-Cyclopropyl-3-(2,6-dichlorophenyl)isoxazol-4-yl)-8-azaspiro[bicyclo[3.2.1]octane-3,1′-cyclobutan]-2′-en-8-yl)-4-fluorobenzo[d]thiazole-6-carboxylic acid]",189
2,"O=C(O)c1ccc(N2[C@@H]3CC[C@H]2CC2(C=C(c4c(-c5c(Cl)cccc5Cl)noc4C4CC4)C2)C3)nc1 (mixture of isomers) [Example 12, 6-(3′-(5-Cyclopropyl-3-(2,6-dichlorophenyl)isoxazol-4-yl)-8-azaspiro[bicyclo[3.2.1]octane-3,1′-cyclobutan]-2′-en-8-yl)nicotinic acid]",182
3,"O=C(O)c1cc(F)c2nc(N3C4CCC3CC3(CC(c5c(-c6c(Cl)cccc6Cl)noc5C5CC5)C3)C4)sc2c1 (stereo not shown) [Example 15, 2-(3′-(5-Cyclopropyl-3-(2,6-dichlorophenyl)isoxazol-4-yl)-8-azaspiro[bicyclo[3.2.1]octane-3,1′-cyclobutan]-8-yl)-4-fluorobenzo[d]thiazole-6-carboxylic acid]",301
4,"O=C(O)c1ccc(N2C3CCC2CC2(CC(c4c(-c5c(Cl)cccc5Cl)noc4C4CC4)C2)C3)nc1 (stereo not shown) [Example 16, 6-(3′-(5-Cyclopropyl-3-(2,6-dichlorophenyl)isoxazol-4-yl)-8-azaspiro[bicyclo[3.2.1]octane-3,1′-cyclobutan]-8-yl)nicotinic acid]",646
